Laboratory results reported in ChEMBL document CHEMBL5338723, “Emerging Target-Directed Approaches for the Treatment and Diagnosis of Microbial Infections” (J Med Chem, 2023).
Values after ≈ are worked out from the molar mass of the structure shown.

What was measured:
Escherichia coli [1] = experiment: Antibacterial activity against Escherichia coli MG1655 assessed as inhibition of bacterial growth; format: functional
Escherichia coli [2] = experiment: Antimicrobial activity against Escherichia coli MG1655 expressing CMY-2 assessed as microbial growth inhibition in the presence of bathocuproinedisulfonic acid; format: functional
Escherichia coli [3] = experiment: Antimicrobial activity against Escherichia coli MG1655 expressing TEM-1 assessed as microbial growth inhibition in the presence of bathocuproinedisulfonic acid; format: functional
Escherichia coli [4] = experiment: Antibacterial activity against Escherichia coli UTI89 expressing CMY-2 assessed as inhibition of bacterial growth; format: functional
Escherichia coli [5] = experiment: Antimicrobial activity against Escherichia coli UTI89 expressing CMY-2 assessed as microbial growth inhibition in the presence of bathocuproinedisulfonic acid; format: functional
Escherichia coli [6] = experiment: Antimicrobial activity against Escherichia coli UTI89 expressing NDM-1 assessed as microbial growth inhibition in the presence of bathocuproinedisulfonic acid; format: functional
Escherichia coli [7] = experiment: Antibacterial activity against Escherichia coli UTI89 expressing NDM-1 assessed as inhibition of bacterial growth; format: functional
Escherichia coli [8] = experiment: Antibacterial activity against Escherichia coli MG1655 expressing CTX-M-1 assessed as inhibition of bacterial growth; format: functional
Escherichia coli [9] = experiment: Antibacterial activity against Escherichia coli UTI89 expressing CTX-M-1 assessed as inhibition of bacterial growth; format: functional
Escherichia coli [10] = experiment: Antimicrobial activity against Escherichia coli UTI89 expressing TEM-1 assessed as microbial growth inhibition in the presence of bathocuproinedisulfonic acid; format: functional
[11] = Cytotoxicity against human CCD 19Lu cells assessed as lethal dose by CellTox Green cytotoxicity assay; format: toxicity, cell-based; details: read-out: LD50 (the source's name)
Escherichia coli [12] = experiment: Antibacterial activity against Escherichia coli MG1655 expressing NDM-1 assessed as inhibition of bacterial growth; format: functional
Escherichia coli [13] = experiment: Antibacterial activity against Escherichia coli UTI89 assessed as inhibition of bacterial growth; format: functional
[14] = Cytotoxicity against human HepG2 cells assessed as lethal dose by CellTox Green cytotoxicity assay; format: toxicity, cell-based; details: read-out: LD50 (the source's name)
Escherichia coli [15] = experiment: Antimicrobial activity against Escherichia coli MG1655 expressing NDM-1 assessed as microbial growth inhibition in the presence of bathocuproinedisulfonic acid; format: functional
Escherichia coli [16] = experiment: Antimicrobial activity against Escherichia coli MG1655 expressing CTX-M-1 assessed as microbial growth inhibition in the presence of bathocuproinedisulfonic acid; format: functional
Escherichia coli [17] = experiment: Antimicrobial activity against Escherichia coli UTI89 expressing CTX-M-1 assessed as microbial growth inhibition in the presence of bathocuproinedisulfonic acid; format: functional
Escherichia coli [18] = experiment: Antibacterial activity against Escherichia coli MG1655 expressing CMY-2 assessed as inhibition of bacterial growth; format: functional
Escherichia coli [19] = experiment: Antimicrobial activity against Escherichia coli IR45 assessed as microbial growth inhibition; format: functional
Escherichia coli [20] = experiment: Antimicrobial activity against Escherichia coli AR0137 assessed as microbial growth inhibition; format: functional
Escherichia coli [21] = experiment: Antimicrobial activity against Escherichia coli AR089 assessed as microbial growth inhibition; format: functional
Escherichia coli [22] = experiment: Antimicrobial activity against Escherichia coli AR055 assessed as microbial growth inhibition; format: functional
Escherichia coli [23] = experiment: Antimicrobial activity against Escherichia coli AR0493 assessed as microbial growth inhibition; format: functional
Escherichia coli [24] = experiment: Antimicrobial activity against Escherichia coli H4/5 assessed as microbial growth inhibition; format: functional
Escherichia coli [25] = experiment: Antimicrobial activity against Escherichia coli AR0494 assessed as microbial growth inhibition; format: functional
Escherichia coli [26] = experiment: Antimicrobial activity against Escherichia coli AR0346 assessed as microbial growth inhibition; format: functional
Staphylococcus aureus [27] = experiment: Antimicrobial activity against vancomycin intermediate Staphylococcus aureus assessed as microbial growth inhibition; format: functional
Escherichia coli [28] = experiment: Antimicrobial activity against Escherichia coli NCTC 13846 assessed as microbial growth inhibition; format: functional
Staphylococcus aureus [29] = experiment: Antimicrobial activity against methicillin-resistant Staphylococcus aureus ATCC 33591 assessed as microbial growth inhibition; format: functional
Escherichia coli [30] = experiment: Antimicrobial activity against Escherichia coli NCTC 13462 assessed as microbial growth inhibition; format: functional
Escherichia coli [31] = experiment: Antimicrobial activity against Escherichia coli Swiss 13 assessed as microbial growth inhibition; format: functional
Escherichia coli [32] = experiment: Antimicrobial activity against Escherichia coli IR3 assessed as microbial growth inhibition; format: functional
Escherichia coli [33] = experiment: Antimicrobial activity against Escherichia coli BW25113 assessed as microbial growth inhibition; format: functional
Escherichia coli [34] = experiment: Antimicrobial activity against Escherichia coli Swiss 2 (AF45) assessed as microbial growth inhibition; format: functional
Escherichia coli [35] = experiment: Antimicrobial activity against Escherichia coli UTI89 assessed as microbial growth inhibition; format: functional
Enterococcus faecalis = experiment: Antimicrobial activity against vancomycin-resistant Enterococcus faecalis ATCC 51575 assessed as microbial growth inhibition; format: functional
Escherichia coli [36] = experiment: Antimicrobial activity against Escherichia coli B096a assessed as microbial growth inhibition; format: functional
Acinetobacter baumannii [37] = experiment: Antimicrobial activity against Acinetobacter baumannii Naval-81 assessed as microbial growth inhibition; format: functional
Escherichia coli [38] = experiment: Antimicrobial activity against Escherichia coli ATCC 25922 assessed as microbial growth inhibition; format: functional
Escherichia coli [39] = experiment: Antimicrobial activity against Escherichia coli AR0150 assessed as microbial growth inhibition; format: functional
Escherichia coli [40] = experiment: Antimicrobial activity against Escherichia coli AR0349 assessed as microbial growth inhibition; format: functional
Escherichia coli [41] = experiment: Antimicrobial activity against Escherichia coli ATCC BAA-2469 assessed as microbial growth inhibition; format: functional
Escherichia coli [42] = experiment: Antimicrobial activity against Escherichia coli NCTC 13441 assessed as microbial growth inhibition; format: functional
Acinetobacter baumannii [43] = experiment: Antimicrobial activity against Acinetobacter baumannii ACC00527 assessed as microbial growth inhibition; format: functional
Escherichia coli [44] = experiment: Antimicrobial activity against Escherichia coli AR0350 assessed as microbial growth inhibition; format: functional
Enterococcus faecium = experiment: Antimicrobial activity against vancomycin-resistant Enterococcus faecium ATCC 51559 assessed as microbial growth inhibition; format: functional
Escherichia coli [45] = experiment: Antimicrobial activity against Escherichia coli AR0114 assessed as microbial growth inhibition; format: functional
Escherichia coli [46] = experiment: Antimicrobial activity against Escherichia coli JW0451-2 assessed as microbial growth inhibition; format: functional
Escherichia coli [47] = experiment: Antimicrobial activity against Escherichia coli ATCC BAA-2340 assessed as microbial growth inhibition; format: functional
Escherichia coli [48] = experiment: Antimicrobial activity against Escherichia coli Swiss 15 assessed as microbial growth inhibition; format: functional
Escherichia coli [49] = experiment: Antimicrobial activity against Escherichia coli B808 assessed as microbial growth inhibition; format: functional
Escherichia coli [50] = experiment: Antimicrobial activity against Escherichia coli IR57 assessed as microbial growth inhibition; format: functional
Acinetobacter baumannii [51] = experiment: Antimicrobial activity against Acinetobacter baumannii GS2AB1 assessed as microbial growth inhibition; format: functional
Escherichia coli [52] = experiment: Antimicrobial activity against Escherichia coli ExPEC H5 assessed as microbial growth inhibition; format: functional
Salmonella enteritidis = experiment: Antimicrobial activity against Salmonella enterica subsp. enterica serovar Enteritidis assessed as increase in microbial growth inhibition; format: functional
Salmonella typhimurium [53] = experiment: Antimicrobial activity against Salmonella enterica subsp. enterica serovar Typhimurium assessed as increase in microbial growth inhibition; format: functional
Escherichia coli [54] = experiment: Antimicrobial activity against Escherichia coli ATCC 35218 assessed as microbial growth inhibition; format: functional
Shigella flexneri [55] = experiment: Antimicrobial activity against Shigella flexneri 2457T assessed as microbial growth inhibition; format: functional
Escherichia coli [56] = experiment: Antimicrobial activity against Escherichia coli DH5alpha assessed as microbial growth inhibition; format: functional
Salmonella typhimurium [57] = experiment: Antimicrobial activity against Salmonella enterica subsp. enterica serovar Typhimurium 19585 assessed as microbial growth inhibition; format: functional
Salmonella typhimurium [58] = experiment: Antimicrobial activity against Salmonella enterica subsp. enterica serovar Typhimurium BAA-190 assessed as microbial growth inhibition; format: functional
Proteus mirabilis = experiment: Antimicrobial activity against Proteus mirabilis 29906 assessed as microbial growth inhibition; format: functional
Salmonella typhi [59] = experiment: Antimicrobial activity against Salmonella enterica subsp. enterica serovar Typhi 700931 assessed as microbial growth inhibition; format: functional
Salmonella typhimurium [60] = experiment: Antimicrobial activity against Salmonella enterica subsp. enterica serovar Typhimurium 29630 assessed as microbial growth inhibition; format: functional
Shigella flexneri [61] = experiment: Antimicrobial activity against Shigella flexneri M90T assessed as microbial growth inhibition; format: functional
Salmonella typhi [62] = experiment: Antimicrobial activity against Salmonella enterica subsp. enterica serovar Typhi 19214 assessed as microbial growth inhibition; format: functional
Escherichia coli [63] = experiment: Antimicrobial activity against Escherichia coli 25922 assessed as microbial growth inhibition; format: functional
Escherichia coli [64] = experiment: Antimicrobial activity against Escherichia coli BAA-196 assessed as microbial growth inhibition; format: functional

O=C(Cc1ccccc1)N[C@@H]1C(=O)N2C(C(=O)O)=C(CSc3ccccn3)CS[C@H]12
MIC (Escherichia coli [1]): 35 µM (≈ 15.5 µg/mL)
MIC (Escherichia coli [2]): > 140 µM
MIC (Escherichia coli [3]): > 140 µM
MIC (Escherichia coli [4]): 17.5 µM (≈ 7.73 µg/mL)
MIC (Escherichia coli [5]): > 140 µM
MIC (Escherichia coli [6]): > 140 µM
MIC (Escherichia coli [7]): 17.5 µM (≈ 7.73 µg/mL)
MIC (Escherichia coli [8]): 17.5 µM (≈ 7.73 µg/mL)
MIC (Escherichia coli [9]): 17.5 µM (≈ 7.73 µg/mL)
MIC (Escherichia coli [10]): > 140 µM
CC50 [11]: > 500 µM
MIC (Escherichia coli [12]): 17.5 µM (≈ 7.73 µg/mL)
MIC (Escherichia coli [13]): 35 µM (≈ 15.5 µg/mL)
CC50 [14]: > 500 µM
MIC (Escherichia coli [15]): > 140 µM
MIC (Escherichia coli [16]): > 140 µM
MIC (Escherichia coli [17]): > 140 µM
MIC (Escherichia coli [18]): 17.5 µM (≈ 7.73 µg/mL)

CN[C@H](CC(C)C)C(=O)N[C@H]1C(=O)N[C@@H](CC(N)=O)C(=O)N[C@H]2C(=O)N[C@H]3C(=O)N[C@H](C(=O)N[C@H](C(=O)O)c4cc(O)cc(O)c4-c4cc3ccc4O)[C@H](O)c3ccc(c(Cl)c3)Oc3cc2cc(c3O[C@@H]2O[C@H](CO)[C@@H](O)[C@H](O)[C@H]2O[C@H]2C[C@](C)(N)[C@H](O)[C@H](C)O2)Oc2ccc(cc2Cl)[C@H]1O [VANCOMYCIN]
MIC (Escherichia coli [19]): 64 mg/L (≈ 44.2 µM)
MIC (Escherichia coli [20]): 64 mg/L (≈ 44.2 µM)
MIC (Escherichia coli [21]): 64 mg/L (≈ 44.2 µM)
MIC (Escherichia coli [22]): 64 mg/L (≈ 44.2 µM)
MIC (Escherichia coli [23]): 64 mg/L (≈ 44.2 µM)
MIC (Escherichia coli [24]): 64 mg/L (≈ 44.2 µM)
MIC (Escherichia coli [25]): 64 mg/L (≈ 44.2 µM)
MIC (Escherichia coli [26]): 64 mg/L (≈ 44.2 µM)
MIC (Staphylococcus aureus [27]): 13 µM (≈ 18.8 µg/mL)
MIC (Escherichia coli [28]): 64 mg/L (≈ 44.2 µM)
MIC (Staphylococcus aureus [29]): 0.63 µM (≈ 0.913 µg/mL)
MIC (Escherichia coli [30]): 64 mg/L (≈ 44.2 µM)
MIC (Escherichia coli [31]): 64 mg/L (≈ 44.2 µM)
MIC (Escherichia coli [32]): 64 mg/L (≈ 44.2 µM)
MIC (Escherichia coli [33]): 64 mg/L (≈ 44.2 µM)
MIC (Escherichia coli [34]): 64 mg/L (≈ 44.2 µM)
MIC (Escherichia coli [35]): 64 mg/L
MIC (Enterococcus faecalis): 250 µM (≈ 362 µg/mL)
MIC (Escherichia coli [36]): 64 mg/L (≈ 44.2 µM)
MIC (Acinetobacter baumannii [37]): 64 mg/L (≈ 44.2 µM)
MIC (Escherichia coli [38]): 64 mg/L (≈ 44.2 µM)
MIC (Escherichia coli [39]): 64 mg/L (≈ 44.2 µM)
MIC (Escherichia coli [40]): 64 mg/L (≈ 44.2 µM)
MIC (Escherichia coli [41]): 64 mg/L (≈ 44.2 µM)
MIC (Escherichia coli [42]): 64 mg/L (≈ 44.2 µM)
MIC (Acinetobacter baumannii [43]): 64 mg/L (≈ 44.2 µM)
MIC (Escherichia coli [44]): 64 mg/L (≈ 44.2 µM)
MIC (Enterococcus faecium): 750 µM (≈ 1090 µg/mL)
MIC (Escherichia coli [45]): 64 mg/L (≈ 44.2 µM)
MIC (Escherichia coli [46]): 64 mg/L (≈ 44.2 µM)
MIC (Escherichia coli [47]): 64 mg/L (≈ 44.2 µM)
MIC (Escherichia coli [48]): 64 mg/L (≈ 44.2 µM)
MIC (Escherichia coli [49]): 64 mg/L (≈ 44.2 µM)
MIC (Escherichia coli [50]): 64 mg/L (≈ 44.2 µM)
MIC (Acinetobacter baumannii [51]): 64 mg/L (≈ 44.2 µM)
MIC (Escherichia coli [52]): 64 mg/L (≈ 44.2 µM)

C[C@@H](O)[C@H]1C(=O)N2C(C(=O)O)=C(S[C@H]3C[C@@H](C(=O)N(C)C)N(C(=O)CCCc4cn(CCOCCOCCOCCNC(=O)c5cc(O)c(O)c(C(=O)N[C@H]6COC(=O)[C@@H](NC(=O)c7cccc(O)c7O)COC(=O)[C@@H](NC(=O)c7cccc(O)c7O)COC6=O)c5)nn4)C3)[C@H](C)[C@H]12
MIC (Salmonella enteritidis): 0.01 µM
MIC (Salmonella typhimurium [53]): 0.01 µM
MIC (Escherichia coli [35]): 0.01 µM
MIC (Escherichia coli [54]): 0.01 µM (≈ 0.0139 µg/mL)

H-GGAPATSANAAGAAAIVGALAGIPGGPLGVVVGAVSAGLTTAIGSTVGSGSASSSAGGGS-OH
MIC (Shigella flexneri [55]): 1.1 µM
MIC (Escherichia coli [56]): 1.1 µM
MIC (Salmonella typhimurium [57]): 1.1 µM
MIC (Salmonella typhimurium [58]): 1.1 µM
MIC (Proteus mirabilis): 1.1 µM
MIC (Salmonella typhi [59]): 1.1 µM
MIC (Salmonella typhimurium [60]): 1.1 µM
MIC (Shigella flexneri [61]): 1.1 µM
MIC (Salmonella typhi [62]): 1.1 µM
MIC (Escherichia coli [63]): 1.1 µM
MIC (Escherichia coli [64]): 1.1 µM
